In article PMC7440915, “Discovery of surrogate agonists for visceral fat Treg cells that modulate metabolic indices in vivo” (eLife, 2020):
Where no end group is shown, it is not given here.

Test system: vTreg53 (Fat) TCR
Experiment: Surface plasmon resonance, pMHC/Fat TCR affinity
Type: binding, murine
Conditions: 25°C; for Kd: Biacore T100, biotinylated pMHC immobilized on SA chip 200 to 600 RU, HBS-P+, equilibrium, representative of 2 experiments
Procedure: Figure 3. Identification of robust vTreg53 TCR agonists. Single-point mutants based on the Fat7 (A) or Fat15 (B) peptides were used to stimulate Fat-TCR transduced Jurkat T cells. Data shown are mean fluorescence intensity for CD69 up-regulation following overnight stimulation with the indicated peptides at 100 µM. (C) Potent SPs based on Fat15. Single-residue mutations from the Fat15 are shown in red. Anchor positions are shown in grey and potential TCR-facing positions are shown in green. A peptide titration of single- and double-point mutants from the Fat15 SP show up to ~4- (D; CD69) or ~8 fold (E; CD25) increase in Emax. (F) Surface plasmon resonance for Fat7, Fat15, Fat1562 and Fat2564 was used to determine the pMHC/Fat TCR affinity. All biotinylated pMHC were purified by SEC and immobilized in a streptavidin-coated SPR sensor chip from 200 up to 600 RU. Data are mean ± SD from n = 2 (A, D, E) or 3 (B) biological replicates from 1 representative of 3 independent experiments. Data shown in (F) is representative of 2 independent experiments. Figure 3—figure supplement 1. In vitro peptide stimulation of the vTreg53 TCR cells. (A) Expression of wild-type Ab MHC in stably transduced K562 cells. (B) Expression of vTreg53 TCR in stably transduced Jurkat T cells (TCRαβ-/-). (C) Fraction of CD25+/CD69+ cells following overnight stimulation with Fat mimotopes at the indicated concentrations. (D) Peptide-A^b - streptavidin PE (pAb -SAPE) titration of vTreg53 transduced Jurkat T cells. Cells were stained with 250 nM of pA^b-SAPE tetramer for 1 hr.
High Five cells (Tni; Expression Systems) were grown in Insect X-press media (Lonza) or ESF 921 media (Expression Systems) with a final concentration of 10 mg/L of gentamicin sulfate (ThermoFisher) at 27°C at atmospheric CO2. SF9 cells are grown in SF900-III or -II serum-free media (ThermoFisher) with 10% FBS and final concentration 10 mg/L of gentamicin sulfate and 2 mM glutamax at 27°C at atmospheric CO2. P1 or P2 virus was used to infect volumes of 1–3 L of Hi5 cells at ∼2 × 10^6 cells/ml. Supernatant was harvested 2–3 days post-infection and spun down at 8000 rpm for 15 min. The supernatant containing expressed protein was treated to 100 mM Tris pH 8.0, 1 mM NiCl2, and 5 mM CaCl2 to precipitate contaminants. The supernatant and precipitate mixture was spun down at 8000 rpm for 20 min at 4°C to remove precipitate. The supernatant was incubated with Ni-NTA resin (QIAGEN) for >3 hr at room temperature. Ni-NTA beads were collected and washed in a Buchner funnel with 20 mM imidazole in 1 x HBS pH 7.2 and eluted with 200 mM imidazole in 1x HBS pH 7.2. Protein was concentrated in a 10 kDa filter (Millipore, UFC903024) to ~1 mL. When appropriate, protein was biotinylated with BirA ligase, 100 μM biotin, 40 mM Bicine pH 8.3, 10 mM ATP, and 10 mM Magnesium Acetate at 4°C overnight. All proteins were further purified by size-exclusion chromatography using Superdex Increase S200 or S75, as appropriate (GE Healthcare). All proteins for in vivo studies were cleared of endotoxin. Final endotoxin levels were determined using a chromogenic endotoxin quantitation kit (Thermo Fisher) and never greater than 1 Endotoxin Unit/mg of purified protein.
A GE Biacore T100 was used to measure the KD by equilibrium methods. Approximately 200 resonance units (RU) of human CD45, PD-1 or mouse PD-1 was captured on a SA-chip (GE Healthcare), including a reference channel of an unrelated protein. SPR runs were performed in HBS-P+ (GE Healthcare). All measurements were made with 2-fold serial dilutions using 45–60 s association (at 30 μl/min) followed by >240 s dissociation (30 μl/min) at 25°C. Regeneration was performed using HBS-P+, 2 M MgCl2 or 0.1 M Glycine, pH 3.1 for 15–20 s at 50 μl/min. Measurement of titrations at equilibrium were used to determine the KD using Biacore Analysis Software (GE Healthcare). All measurements were repeated twice.

TMYKNPRPMAATG [Fat1562]
affinity (SPR): highest affinity | koff (SPR): slowest koff

TMYKNLRPWAATG [Fat2564]
Kd: 0.347 µM | affinity (SPR): highest affinity | koff (SPR): slowest koff

LMFKGPHAVQAVG [Fat7]
Kd: 34.7 µM | koff (SPR): fast kon and koff | kon (SPR): fast kon
